How the values were obtained:
[1] = biological target: Carbonic anhydrase 2 (Homo sapiens, UniProt P00918)
Description: Inhibition of human carbonic anhydrase 2 preincubated for 15 mins by CO2 hydration stopped-flow assay

[2] = biological target: Carbonic anhydrase 14 (Homo sapiens, UniProt Q9ULX7)
Description: Inhibition of human carbonic anhydrase 14 preincubated for 15 mins by CO2 hydration stopped-flow assay

[3] = biological target: Carbonic anhydrase 12 (Homo sapiens, UniProt O43570)
[4] = biological target: Carbonic anhydrase 9 (Homo sapiens, UniProt Q16790)
Description: Inhibition of human carbonic anhydrase 9 preincubated for 15 mins by CO2 hydration stopped-flow assay

[5] = biological target: Carbonic anhydrase 7 (Homo sapiens, UniProt P43166); test: Inhibition of human carbonic anhydrase 7 preincubated for 15 mins by CO2 hydration stopped-flow assay
Sequence of Carbonic anhydrase 7 (P43166 whole entry): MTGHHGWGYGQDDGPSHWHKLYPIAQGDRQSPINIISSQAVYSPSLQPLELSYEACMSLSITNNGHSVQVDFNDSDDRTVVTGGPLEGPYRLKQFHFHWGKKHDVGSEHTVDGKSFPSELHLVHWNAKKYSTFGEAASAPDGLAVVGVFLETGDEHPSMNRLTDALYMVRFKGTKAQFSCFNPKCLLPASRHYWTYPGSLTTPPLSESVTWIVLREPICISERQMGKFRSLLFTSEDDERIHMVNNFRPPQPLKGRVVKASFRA

[6] = biological target: Carbonic anhydrase 1 (Homo sapiens, UniProt P00915)
Sequence of Carbonic anhydrase 1 (P00915 whole entry): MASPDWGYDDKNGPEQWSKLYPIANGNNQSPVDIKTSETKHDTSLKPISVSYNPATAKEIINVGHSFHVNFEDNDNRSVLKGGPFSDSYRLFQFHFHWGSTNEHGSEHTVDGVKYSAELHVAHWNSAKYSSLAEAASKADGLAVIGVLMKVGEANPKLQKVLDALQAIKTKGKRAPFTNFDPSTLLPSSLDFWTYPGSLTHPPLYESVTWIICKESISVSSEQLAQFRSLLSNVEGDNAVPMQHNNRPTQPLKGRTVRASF
Description: Inhibition of human carbonic anhydrase 1 preincubated for 15 mins by CO2 hydration stopped-flow assay

Sequence of Carbonic anhydrase 14 (Q9ULX7 whole entry): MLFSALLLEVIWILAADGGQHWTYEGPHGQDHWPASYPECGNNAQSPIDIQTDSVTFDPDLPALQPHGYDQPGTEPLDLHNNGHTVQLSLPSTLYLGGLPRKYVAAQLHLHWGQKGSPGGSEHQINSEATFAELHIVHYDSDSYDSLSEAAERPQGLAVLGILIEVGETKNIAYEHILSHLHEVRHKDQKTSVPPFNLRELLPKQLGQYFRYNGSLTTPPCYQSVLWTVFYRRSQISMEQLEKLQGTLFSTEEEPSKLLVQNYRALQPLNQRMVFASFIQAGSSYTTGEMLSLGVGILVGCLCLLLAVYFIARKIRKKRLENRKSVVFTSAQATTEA
Sequence of Carbonic anhydrase 12 (O43570 whole entry): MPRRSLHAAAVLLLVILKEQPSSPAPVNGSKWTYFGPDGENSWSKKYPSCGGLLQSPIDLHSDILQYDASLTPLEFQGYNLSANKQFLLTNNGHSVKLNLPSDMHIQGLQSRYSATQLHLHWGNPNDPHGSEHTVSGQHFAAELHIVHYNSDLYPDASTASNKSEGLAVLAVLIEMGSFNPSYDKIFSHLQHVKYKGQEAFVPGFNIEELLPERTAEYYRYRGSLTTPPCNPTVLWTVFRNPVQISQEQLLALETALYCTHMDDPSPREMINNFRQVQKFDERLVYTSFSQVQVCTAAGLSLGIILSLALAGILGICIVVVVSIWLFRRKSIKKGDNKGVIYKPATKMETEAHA

| Structure (SMILES) | Ki [1] | Ki [2] | Ki [3] | Ki [4] | Ki [5] | Ki [6] |
| --- | --- | --- | --- | --- | --- | --- |
| CCOC(=O)c1cc(O)ccc1O | 0.69 µM |  |  |  |  |  |
| COC(=O)c1ccc(O)cc1 [METHYLPARABEN] | 3.4 µM | 4.1 µM | 0.82 µM | 5.5 µM | 0.78 µM | 2.6 µM |
| CCOC(=O)c1ccc(O)cc1O | 0.52 µM |  |  | 0.82 µM |  |  |
| CC(C)OC(=O)c1ccc(O)cc1 [ISOPROPYL 4-HYDROXYBENZOATE] | 4.4 µM |  |  | 7.4 µM |  |  |
| CCOC(=O)c1ccc(O)c(O)c1 | 0.61 µM |  |  | 0.78 µM |  |  |
| CC(C)OC(=O)c1ccc(O)cc1O | 0.51 µM |  |  | 0.31 µM |  |  |
| COC(=O)c1cc(O)ccc1O [METHYL 2,5-DIHYDROXYBENZOATE] | 0.77 µM |  |  | 0.84 µM |  |  |
| COC(=O)c1ccc(O)c(O)c1 [METHYL PROTOCATECHUATE] | 0.58 µM |  |  | 0.79 µM |  |  |
| O=C(O)c1c(O)cccc1O | 5.2 µM | 6.5 µM | 7.2 µM | 5.9 µM | 6.6 µM | 5.7 µM |
| O=C(O)c1ccc(O)cc1O [2,4-DIHYDROXYBENZOIC ACID] | 4.9 µM | 70 µM | 7.5 µM | 68 µM | 72 µM | 5.2 µM |
| CCOC(=O)/C=C/c1ccc(O)cc1 [ETHYL P-COUMARATE] | 0.71 µM |  |  | 0.61 µM |  |  |
| Cc1cc(C)[n+](CCc2ccccc2-c2ccccc2)c(C)c1 | 4.7 µM |  |  | 0.71 µM |  |  |
| COC(=O)c1c(O)cccc1O | 0.7 µM |  |  | 0.81 µM |  |  |
| CC(C)OC(=O)c1cc(O)cc(O)c1 | 0.7 µM |  |  | 0.9 µM |  |  |
| CCOC(=O)c1ccc(O)cc1 [ETHYLPARABEN] | 4.8 µM | 7.7 µM | 8.6 µM | 8.2 µM | 8.7 µM | 7.9 µM |
| Nc1cccc(O)c1 [3-AMINOPHENOL] | 4.7 µM | 7.2 µM | 7.7 µM | 4.9 µM | 5.9 µM | 4.9 µM |
| Cc1cc(C)[n+](CCc2ccccc2C)c(C)c1 | 6.8 µM |  |  | 0.83 µM |  |  |
| COC(=O)/C=C/c1ccc(O)cc1 [METHYL P-HYDROXYCINNAMATE] | 0.8 µM | 0.83 µM | 0.81 µM | 0.85 µM | 0.82 µM | 0.78 µM |

| Structure (SMILES) | Ki [1] | Ki [2] | Ki [3] | Ki [4] | Ki [5] | Ki [6] |
| --- | --- | --- | --- | --- | --- | --- |
| COc1ccc(OC)cc1 [1,4-DIMETHOXYBENZENE] |  | 6.79 µM |  |  | 3.88 µM |  |
| CC(C)OC(=O)c1c(O)cccc1O | 0.53 µM |  |  | 0.79 µM |  |  |
| CCOC(=O)c1c(O)cccc1O | 0.56 µM |  |  | 0.78 µM |  |  |
| O=C(O)c1cc(-c2c3ccc(=O)cc-3oc3cc(O)ccc23)ccc1NC(=S)NCCc1ccc(O)c(O)c1 | 4.4 µM |  |  | 6.7 µM |  |  |
| Cc1cc(C)[n+](-c2cc(O)ccc2Cl)c(C)c1 | 0.49 µM |  |  | 0.7 µM |  |  |
| COC(=O)c1ccc(O)cc1O [METHYL 2,4-DIHYDROXYBENZOATE] | 0.76 µM | 0.86 µM | 0.95 µM | 0.89 µM | 0.85 µM | 0.83 µM |
| COC(=O)c1cc(O)cc(O)c1 [METHYL 3,5-DIHYDROXYBENZOATE] | 0.69 µM |  |  | 0.81 µM |  |  |
| O=C(O)c1cc(O)cc(O)c1 [3,5-DIHYDROXYBENZOIC ACID] |  | 0.65 µM |  |  | 7.17 µM |  |
| CCOC(=O)c1cc(O)cc(O)c1 | 0.66 µM |  |  | 0.91 µM |  |  |
| Nc1cc(O)ccc1Cl | 4.9 µM |  |  | 4.7 µM |  |  |
| CC(C)OC(=O)c1cc(O)ccc1O | 0.58 µM |  |  | 0.81 µM |  |  |
| CC(C)OC(=O)c1ccc(O)c(O)c1 | 0.42 µM |  |  | 0.8 µM |  |  |
| COc1ccc(C(=O)O)cc1OC [VERATRIC ACID] |  | 0.74 µM |  |  | 7.15 µM |  |
| CC(C)OC(=O)/C=C/c1ccc(O)cc1 [ISOPROPYL 3-(4-HYDROXYPHENYL)ACRYLATE] | 0.52 µM | 0.73 µM | 0.76 µM | 0.68 µM | 0.69 µM | 0.54 µM |
| Cc1cc(C)[n+](-c2cccc(O)c2)c(C)c1 | 0.32 µM |  |  | 0.68 µM |  |  |
| O=C(O)c1cc(O)ccc1O [GENTISIC ACID] |  | 67 µM | 7.3 µM | 6.6 µM | 68 µM | 4.2 µM |
| O=C(O)c1ccc(O)c(O)c1 [PROTOCATECHUIC ACID] |  | 0.69 µM |  |  | 7.87 µM |  |

Source: ChEMBL document CHEMBL2331404, “Mono-/dihydroxybenzoic acid esters and phenol pyridinium derivatives as inhibitors of the mammalian carbonic anhydrase isoforms I, II, VII, IX, XII and XIV” (Bioorg Med Chem, 2013)
